{"source": "patent US20250009696A1", "about": "“METHODS OF CANCER TREATMENT VIA REGULATED FERROPTOSIS” (Memorial Sloan Kettering Cancer Center, priority 2017, published 2025)", "key": {"[1]": {"test": "Computational analysis of cell death spreading (time-lapse microscopy, random trials)", "type": "cell-based", "details": "experimentally-induced apoptosis; cell line not stated", "protocol": "Nuclei are circled and color-coded to represent the relative timing of cell death, determined by time-lapse microscopy. The relative positioning of cell deaths occurring in successive frames of a time-lapse movie are calculated by measuring the distance between newly occurring deaths and their nearest neighbor of any previous deaths, for example death 2 to death 1, or distance a. The mean distance of all deaths in a movie is calculated as distances (a+b+c+ . . . +n)/n.\nIt was observed that ferroptosis involves the spreading of cell death between adjacent cells in cell culture in wave-like or synchronous patterns. […] To study cell death spreading, a computational analysis was designed that allows for quantification of the random or non-random nature of observed patterns of cell death in a population. As shown in FIGS. 2A-2D, this analysis utilizes time-lapse microscopic imaging of cell death, for cells cultured in the presence of Sytox green or Sytox orange dyes (or propidium iodide), which enter the nucleus of necrotic cells and emit green or red fluorescence (FIG. 2A). […] In addition to the actual data set calculated for each field of view, randomized trials are then also performed 1000 times for each microscopic field, to generate a random set of possible mean distances that account for the particular arrangements of cells in each field (FIG. 2B). […]"}, "[2]": {"test_system": "PC-3 prostate cancer cells", "test": "Western blot of PSMA and AR expression after enzalutamide exposure in vitro", "type": "cell-based", "details": "10 μM for 15 days"}, "[3]": {"test_system": "LNCAP prostate cancer cells", "test": "Western blot of PSMA and AR expression after enzalutamide exposure in vitro", "type": "cell-based", "details": "10 μM continuously for 15 days", "description": "At the conclusion of exposure, cells were collected and the expression levels of PSMA and AR were examined via Western blot."}, "[4]": {"test_system": "LNCAP xenografts", "test": "PSMA expression in xenografts after daily enzalutamide", "type": "in vivo, mice", "details": "10 mg/kg/day, oral gavage"}, "[5]": {"test_system": "LNCAP-AR prostate cancer cells", "test": "Western blot of PSMA and AR expression after enzalutamide exposure in vitro", "type": "cell-based", "details": "10 μM over 15 days"}, "[6]": {"test_system": "HT1080 cells", "test": "Cell rupture in response to other inducers of ferroptosis with osmoprotectants", "type": "cell-based", "details": "necrotic cell death induced by hydrogen peroxide, FIG. 1F", "description": "(§1) The use of osmo-protectants (FIG. 1B) of increasing sizes can indicate the presence of pores in the membrane that would be required for cell rupture."}, "[7]": {"test_system": "cells treated with FAC and BSO", "test": "Spreading of ferroptosis, cell rounding and calcium signal with inhibitors or osmoprotectants", "type": "cell-based", "protocol": "FIG. 3A depicts images that show cell colony prior to (left) and 12 hours after (right) treatment with liproxstatin-1. Note cell death involving wave-like spreading that was induced by FAC and BSO, and started prior to liproxstatin-1 addition, was inhibited, as cells that were alive (bottom right half of colony) stayed alive for 12 hours.\nRight images show computational quantifications of the spreading of cell rounding (top), which remains significant in the presence of PEG1450 (***P=0.004) (see histogram, bottom). Cells are pseudocolored in top image to represent the relative timing of cell rounding.\nRelative times are shown as minutes (min).\nIt was observed that ferroptosis involves a pore-forming activity and, also, a spreading activity. […] As cell rounding or swelling may be associated with calcium influx into cells, cells expressing the genetically-encoded calcium sensor GCaMP, which emits GFP fluorescence upon calcium exposure, were treated with FAC and BSO to induce ferroptosis in the presence of PEG3350."}, "[8]": {"test_system": "cells treated with FAC and BSO", "test": "Cell swelling and cell lysis (LDH release) in FAC and BSO-induced ferroptosis", "type": "cell-based", "details": "for cell lysis / cell rupture (release of lactate dehydrogenase, LDH): 48 hours of treatment with FAC and BSO (400 μM), osmoprotectant 30 mM", "protocol": "The effect on cell lysis is shown by reduced release of lactate dehydrogenase (LDH), a measure of necrosis.\nTo investigate if the ferroptotic rupture of cells might be an event that is regulated by a pore, experiments were performed with osmo-protectants in the cell culture medium. Osmo-protectants are large osmolytes that when added to sufficient concentrations outside of cells (30 mM), buffer potential ion imbalances caused by pore formation that would otherwise lead to membrane rupture. The loss of ion and small molecule balances across the plasma membrane due to the opening of a pore would lead to hypo-osmotic stress due to the large molecules and organelles that cannot cross the intact membrane.\nas §1"}}}
{"smiles": "C[C@@H]1C[C@@H]([C@H](O)CC2CC(=O)NC(=O)C2)C(=O)[C@@H](C)C1", "note": "[cyclohexamide]", "values": [{"measurement": "observed mean distance between cell deaths versus random trials", "setting": "[1]", "value": "falls within the random trials"}]}
{"smiles": "CNC(=O)c1ccc(N2C(=S)N(c3ccc(C#N)c(C(F)(F)F)c3)C(=O)C2(C)C)cc1F", "note": "[enzalutamide]", "values": [{"measurement": "AR expression (Western blot)", "setting": "[2]", "value": "negative for AR across all tested time points"}, {"measurement": "PSMA expression (Western blot)", "setting": "[2]", "value": "lack of PSMA expression at all time points"}, {"measurement": "AR expression (Western blot)", "setting": "[3]", "value": "transient increase in AR expression is also observed from Day 7 to Day 10"}, {"measurement": "PSMA expression (Western blot)", "setting": "[3]", "value": "increase in PSMA expression occurs on, or around, Day 7 of exposure"}, {"measurement": "PSMA expression in LNCAP xenografts", "setting": "[4]", "value": "increase in PSMA expression at Day 5"}, {"measurement": "PSMA expression in tumor sections (immunofluorescence staining)", "setting": "[4]", "value": "increase in PSMA expression at Day 5"}, {"measurement": "AR expression (Western blot)", "setting": "[5]", "value": "clear increase in AR expression is observed from Day 3 onward"}, {"measurement": "PSMA expression (Western blot)", "setting": "[5]", "value": "time-dependent increase in PSMA expression"}]}
{"smiles": "OO", "note": "[hydrogen peroxide]", "values": [{"measurement": "regulation of necrotic cell death by PEG1450 or PEG3350", "setting": "[6]", "value": "did not involve similar regulation"}]}
{"smiles": "Clc1cccc(CN=C2Nc3ccccc3NC23CCNCC3)c1", "note": "[liproxstatin-1]", "values": [{"measurement": "spreading of cell rounding / morphological changes", "setting": "[7]; FAC and BSO (400 μM) in the presence of the named agent", "value": "blocked"}, {"measurement": "wave-like spreading of ferroptosis", "setting": "[7]; FAC and BSO, agent added after initiation of ferroptosis", "value": "disrupted wave-like spreading"}]}
{"smiles": "COc1nccnc1NS(=O)(=O)c1ccc(NC(=O)/C=C/c2ccc([N+](=O)[O-])s2)cc1", "note": "[necrosulfonamide]", "values": [{"measurement": "ferroptotic cell rupture", "setting": "[8]; treatment with inhibitor of MLKL", "value": "did not affect ferroptotic cell rupture"}]}
{"smiles": "OC[C@H]1O[C@H](OC[C@H]2O[C@H](O[C@]3(CO)O[C@H](CO)[C@@H](O)[C@@H]3O)[C@H](O)[C@@H](O)[C@@H]2O)[C@H](O)[C@@H](O)[C@H]1O", "note": "[raffinose]", "values": [{"measurement": "cell lysis / cell rupture (release of lactate dehydrogenase, LDH)", "setting": "[8]", "value": "did not"}]}
{"smiles": "OC[C@H]1O[C@@](CO)(O[C@H]2O[C@H](CO)[C@@H](O)[C@H](O)[C@H]2O)[C@@H](O)[C@@H]1O", "note": "[sucrose]", "values": [{"measurement": "cell lysis / cell rupture (release of lactate dehydrogenase, LDH)", "setting": "[8]", "value": "did not"}]}
